Here are results for 11 compounds from ChEMBL document CHEMBL1201862, “PubChem BioAssay data set” (2004).

Test systems include HCT-116; HCC 2998; MOLT-4; MDA-MB-231; COLO 205; SN12C; SW-620; DU-145; A549; RPMI-8226; NCI-H23; UO-31; HL-60; SK-MEL-28; SF-268; ACHN; Hs-578T; NCI-H460; A498.
What all share (assay): DTP human tumour cell line panel, 48 h

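48-hour exposure; five concentrations; linearly interpolated endpoints. GI50 = concentration required for 50% inhibition of growth.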 Activity calls are given as the source filed them. Cut-off read from the data, not from the text of the source: active = GI50 up to about 1.1 µM and inactive = higher.

On to `CCOC(=O)CC1C(O)C(=O)N(C)C1c1ccccc1` (stereo not drawn), for which the GI50 in the assay with HCT-116, in the assay with HCC 2998, with MOLT-4, in the assay with MDA-MB-231, with COLO 205 and in the assay with SN12C was > 100 µM (inactive) in each case. The GI50 in the assay on SW-620, in the assay with DU-145, in the assay with A549, in the assay on RPMI-8226, in the assay on NCI-H23 and in the assay on UO-31 was > 100 µM (inactive) each time. The GI50 with HL-60, in the assay on SK-MEL-28, in the assay with SF-268, in the assay on ACHN and in the assay on Hs-578T was > 100 µM (inactive) in each case.

In the case of `Clc1ccccc1CN1COc2c(cc(Cl)c3cccnc23)C1`, the GI50 – broadly, the concentration that inhibits growth by half – in the assay on HCT-116 was 3.64 µM (inactive); in the assay with MOLT-4, 0.28 µM (active); with MDA-MB-231, 2.3 µM (inactive); in the assay on COLO 205, 19 µM (inactive); in the assay on SN12C it was 0.0249 µM (active); in the assay with SW-620, 5.01 µM (inactive). The GI50 with NCI-H460 is 2.75 µM (inactive); in the assay with DU-145 it was 7.19 µM (inactive); with A549, 3.35 µM (inactive); in the assay with NCI-H23, 3.38 µM (inactive); in the assay with UO-31, 2.89 µM (inactive); in the assay with HL-60, 0.398 µM (active). Moreover, the GI50 was 6.27 µM (inactive) with SK-MEL-28, 5.18 µM (inactive) in the assay with SF-268, 1.84 µM (inactive) in the assay with ACHN and 4.62 µM (inactive) with Hs-578T.

In the case of `CCCCCCc1cc2cc(-c3cn4c(n3)sc3ccccc34)c(=O)oc2cc1O`, the GI50 in the assay with HCT-116 is > 95.1 µM (inactive); with HCC 2998, > 100 µM (inactive); in the assay with MOLT-4, > 100 µM (inactive); with MDA-MB-231 it was > 100 µM (inactive); with COLO 205, > 100 µM (inactive); with SN12C, > 100 µM (inactive). Besides, the GI50 in the assay on SW-620 is > 78.7 µM (inactive); with NCI-H460, > 100 µM (inactive); in the assay on DU-145 it was > 100 µM (inactive); with A549, > 100 µM (inactive); in the assay on RPMI-8226, > 100 µM (inactive); in the assay on NCI-H23, > 100 µM (inactive). For the same compound, the GI50 is > 100 µM (inactive) in the assay with UO-31; > 60.3 µM (inactive) in the assay on HL-60; 3.39 µM (inactive) with SK-MEL-28; > 100 µM (inactive) in the assay with SF-268; > 100 µM (inactive) in the assay with ACHN; > 25.1 µM (inactive) in the assay with Hs-578T.

As to `C[Si](C)(c1ccc(C(=O)O)cc1)c1ccc(C(=O)O)cc1`, the GI50 with HCT-116, with MOLT-4, in the assay on MDA-MB-231, in the assay on COLO 205, with SN12C and with SW-620 was > 100 µM (inactive) throughout. The GI50 in the assay with NCI-H460, in the assay with DU-145, with A549, in the assay on RPMI-8226, in the assay with NCI-H23 and in the assay on SK-MEL-28 was > 100 µM (inactive) each time. For the same compound, the GI50 with SF-268, in the assay on A498, with ACHN and in the assay with Hs-578T was > 100 µM (inactive) each time.

With `c1ccc2sc(C3(N4CCC5(CC4)OCCO5)CCCCC3)cc2c1`, the GI50 in the assay on HCT-116 is 58.1 µM (inactive); with HCC 2998 it was 27.7 µM (inactive); with MOLT-4, 29.2 µM (inactive); in the assay on COLO 205, 48 µM (inactive); in the assay on SN12C, 88.3 µM (inactive); in the assay on SW-620, > 100 µM (inactive). For the same compound, the GI50 was 48.5 µM (inactive) in the assay on NCI-H460; > 100 µM (inactive) in the assay with DU-145; > 100 µM (inactive) with A549; 29.4 µM (inactive) with RPMI-8226; > 100 µM (inactive) in the assay with NCI-H23; > 100 µM (inactive) in the assay on UO-31. The GI50 was 12.2 µM (inactive) in the assay with HL-60; > 100 µM (inactive) with SK-MEL-28; > 100 µM (inactive) with SF-268; > 100 µM (inactive) in the assay with A498; > 100 µM (inactive) in the assay on ACHN; > 100 µM (inactive) in the assay on Hs-578T.

Consider `CC(C)(C)OC(=O)N1CCC2(C)CC(=O)CC=C12` (stereo not drawn), for which the GI50 in the assay on HCT-116 is 81.8 µM (inactive); with HCC 2998, > 100 µM (inactive); with MOLT-4, > 100 µM (inactive); in the assay on MDA-MB-231, > 100 µM (inactive); in the assay on COLO 205, > 100 µM (inactive); in the assay on SN12C it was > 100 µM (inactive). Further, the GI50 in the assay on SW-620 was 67 µM (inactive); in the assay with NCI-H460, > 100 µM (inactive); in the assay with DU-145, > 100 µM (inactive); in the assay on A549, > 100 µM (inactive); with NCI-H23, > 100 µM (inactive); with UO-31, > 100 µM (inactive). Moreover, the GI50 with HL-60, in the assay on SK-MEL-28, in the assay on SF-268, in the assay on ACHN and in the assay on Hs-578T was > 100 µM (inactive) throughout.

On to `CSc1nc2ccccc2c(=O)n1/N=C1\C(=O)N(CN2CCCCC2)c2ccc(Cl)cc21`, for which the GI50 in the assay on HCT-116 is 18.5 µM (inactive); in the assay on MOLT-4, 12.4 µM (inactive); in the assay with MDA-MB-231, 55.1 µM (inactive); with COLO 205, 17.9 µM (inactive); with SN12C it was 28.7 µM (inactive); in the assay on SW-620, 12.5 µM (inactive). For the same compound, the GI50 in the assay with NCI-H460 was 22.7 µM (inactive); with DU-145, 17.3 µM (inactive); in the assay on A549, 37.2 µM (inactive); in the assay with NCI-H23, 28.4 µM (inactive); with UO-31, 45.8 µM (inactive); in the assay on HL-60, 10.9 µM (inactive). Moreover, the GI50 with SK-MEL-28 is 60.5 µM (inactive); in the assay with SF-268, 20.1 µM (inactive); with A498 it was 27.8 µM (inactive); in the assay with ACHN it was 28.6 µM (inactive); with Hs-578T it was 37.7 µM (inactive).

As to `N#CCN1CCCCCc2ccccc21`, the GI50 with HCT-116, in the assay with HCC 2998, in the assay with MOLT-4, in the assay with MDA-MB-231, with COLO 205 and in the assay with SN12C was > 100 µM (inactive) throughout. The GI50 in the assay on SW-620, with NCI-H460, in the assay on DU-145, in the assay with A549, with RPMI-8226 and with NCI-H23 was > 100 µM (inactive) in each case. Moreover, the GI50 in the assay on UO-31, in the assay with HL-60, in the assay with SK-MEL-28, in the assay with SF-268, with ACHN and in the assay on Hs-578T was > 100 µM (inactive) in each case.

With `COc1c(NC(C)=O)c2ccccc2c2ccccc12`, the GI50 in the assay with HCT-116 is > 100 µM (inactive); in the assay with MOLT-4, 66.5 µM (inactive); with MDA-MB-231, > 100 µM (inactive); in the assay on SN12C it was > 100 µM (inactive); with SW-620, > 100 µM (inactive); in the assay on NCI-H460 it was > 100 µM (inactive). Also, the GI50 in the assay on DU-145 is > 100 µM (inactive); in the assay with A549, > 100 µM (inactive); with NCI-H23 it was > 100 µM (inactive); in the assay with UO-31, 89.3 µM (inactive); with HL-60, 99.5 µM (inactive); in the assay with SK-MEL-28 it was > 100 µM (inactive). The GI50 in the assay with SF-268, in the assay on A498, in the assay with ACHN and in the assay with Hs-578T was > 100 µM (inactive) in each case.

For `C[C@@H]1C(=O)O[C@@H]2C[C@@]1(C)[C@@H]1C(=O)C3(O)OC14C2(C)OC(=O)[C@@]4(O)CCC1C3C(O)C=C2CC=CC(=O)[C@@]21C` (stereo partly drawn), the GI50 in the assay on HCT-116 was 20.7 µM (inactive); with HCC 2998 it was 39.1 µM (inactive); in the assay with MOLT-4 it was 20.7 µM (inactive); in the assay with MDA-MB-231, 28.8 µM (inactive); in the assay on COLO 205 it was 34 µM (inactive); with SN12C, 41.2 µM (inactive). Besides, the GI50 is 40.2 µM (inactive) in the assay with SW-620; 29.9 µM (inactive) in the assay with NCI-H460; 30.3 µM (inactive) in the assay on DU-145; 40.8 µM (inactive) with A549; 19.7 µM (inactive) with RPMI-8226; 22.5 µM (inactive) in the assay on UO-31. Besides, the GI50 in the assay with HL-60 was 13.4 µM (inactive); in the assay on SK-MEL-28 it was 22.2 µM (inactive); with SF-268 it was 26.7 µM (inactive); in the assay on ACHN it was 53.6 µM (inactive); with Hs-578T, 20.9 µM (inactive).

As for `Cc1cc2c(cc1Cl)SSc1cc(Cl)c(C)cc1S(=O)(=O)Nc1nc(N)nn1C(O)n1nc(N)nc1NS2(=O)=O`, the GI50 in the assay on HCT-116, in the assay on HCC 2998, in the assay with MOLT-4, with COLO 205, with SN12C and in the assay on SW-620 was > 10 µM (inactive) each time. For the same compound, the GI50 in the assay on NCI-H460, with DU-145, in the assay with A549, in the assay on RPMI-8226, in the assay on NCI-H23 and with UO-31 was > 10 µM (inactive) in each case. The GI50 in the assay with HL-60, in the assay on SK-MEL-28, with SF-268, in the assay with A498, in the assay on ACHN and in the assay on Hs-578T was > 10 µM (inactive) throughout.
